The source of these data is patent publication US20230113802A1, “COMPOSITION AND METHOD TO PREPARE LONG-ACTING INJECTABLE SUSPENSION CONTAINING MULTIPLE CANCER DRUGS” (University of Washington, priority 2020, published 2023).

This data set can be described thus: Pharmacokinetic study of GT in DcNPs compared to CrEL (Example 2), plasma G, T and dFdU. The data set is classed as in vivo, BALB/c mice. The source says:
Drugs extracted from biological matrices such as plasma or tissue homogenates were quantified by a Shimadzu HPLC system coupled to a 3200 QTRAP mass spectrometer (Applied Biosystems, Grand Island, N.Y.). The HPLC system consisted of two Shimadzu LC-20A pumps, a DGU-20A5 degasser, and a Shimadzu SIL-20AC HT autosampler. The mass spectrometer was equipped with an electrospray ionization (ESI) TurbolonSpray source. The system was operated with Analyst software, version 1.5.2 (ABSciex, Framingham, Mass.). Chromatographic separation of G and T was achieved using a Synergi column (100×2.0 mm; 4-μm particle size) (Phenomenex, Torrance, Calif.) with an inline C8 guard column (4.0×2.0 mm) also from Phenomenex. The flow rate was set to 0.5 mL/min with a 5 μl sample injection volume. The mobile phase for separation consisted of pump A (20 mM Ammonium Acetate in water) and B (Reagent Alcohol). […] The needle was washed with isopropanol after each injection. Analytes were monitored using multiple-reaction monitoring (MRM) for positive ions.
Statistical comparisons were performed using 2-sided t-tests with Welch's correction for unequal variances. Significance probability α was set at 0.05. Pharmacokinetic parameters from non-compartmental analysis were calculated using the trapezoidal rule and relevant pharmacokinetic equations shown in Table 3.

With `O=c1ccn([C@@H]2O[C@H](CO)[C@@H](O)C2(F)F)c(=O)[nH]1` [dFdU, 2′,2′-difluoro-deoxyuridine], the “plasma dFdU times higher than G at 3 hours” value (CrEL control dosage form) worked out at 50 times. Moreover, the “plasma dFdU times lower than G at 3 hours” value (GT DcNP dosage form) stood at 3.4 times. Besides, the “plasma concentration within 15 minutes” value (after GT in CrEL control dosage form IV, mice) worked out at 11836.7 ng/mL. Moreover, the concentration at 3 h (female, BALB/c, mouse, plasma, intravenous, after control CrEL dosing, 50/5 mg/kg G/T IV, mice) was 4340 ng/mL.
